Assay results taken from patent publication US10111893B2, “Calmangafodipir, a new chemical entity, and other mixed metal complexes, methods of preparation, compositions, and methods of treatment” (priority 2012, dated 2018).

How the values were obtained:
[1] = system: CT26 (mouse colon carcinoma) cells; test: MTT viability assay, cytotoxic activity; details: 48 h, 1-1,000 μM
Protocol: The viability of cells was measured using the MTT assay. […] The viability of the cells was then assessed by adding 5 mg/ml methylthiazoletetrazolium (MTT) to a final concentration of 0.5 mg/ml and incubating cells for a further 4 h at 37° C. The blue formazan that is formed by mitochondrial dehydrogenases of viable cells was then dissolved over night at 37° C. by adding 10% SDS and 10 mM HCl to a final concentration of 5% SDS and 5 mM HCl. Finally, the absorbance of the solution was read at 570 nm with a reference at 670 nm in a microplate reader Spectramax 340 (Molecular Devices, Sunnyvale, Calif., USA) connected to an Apple Macintosh computer running the program Softmax Pro V1.2.0 (Molecular Devices, Sunnyvale, Calif., USA).

CT26 tumors [2] = test: Antitumor activity of oxaliplatin with or without calmangafodipir in CT26-bearing immune competent and nude balb/c mice; type: in vivo; details: 5 mg/kg calmangafodipir with 10 mg/kg oxaliplatin
Protocol: When the cells reached ˜50% confluency they were harvested by trypsinization. Briefly, cells were washed with PBS (pH 7.3) and exposed to 0.05% Trypsin/0.53 mM EDTA at 37° C. for ˜5 min. The trypsinization was stopped by adding RPMI 1640 culture medium. Cells were counted and centrifuged at 200×g for 5 min. Thereafter, they were washed in PBS, centrifuged again and resuspended in PBS at a concentration of 2×10^6/350 μl for injection into mice. Immune competent balb/c female mice (balb/c) and immune incompetent nude female balb/c mice (blab/c nu/nu) between 6 and 8 weeks of age were used, as described by Laurent et al., 2005. Briefly, each mouse was injected subcutaneously in the back of the neck with 2×10^6 of CT26 cells at day 0. After 7 days (day 7) when the tumors were detectable, the tumor size was determined with a caliper and mice were grouped (5 in each group) so that the sizes of the tumors were not statistically different by group. Groups of mice (5 in each group, as illustrated in FIG. 14) were injected i.v. with saline or 5 mg/kg calmangafodipir (lot #11AK0105B) 30 minutes prior to i.p. administration of 10 mg/kg oxaliplatin (diluted in 5% glucose) or 5% glucose. Mice received in addition saline or 5 mg/kg calmangafodipir 24 hours later (day 8). The mice were sacrificed on day 10 and the tumors were excised and wet weights were determined. The results are presented in a graph for the various treatments (mean±S.E.M.).

[3] = system: white blood cells (WBC), lymphocytes (LYM), neutrophils (NEU); test: Myelosuppressive effects of carboplatin in balb/c mice, cytoprotection; type: in vivo
Description: A control group received vehicle (saline) and saline instead of carboplatin.

human U1810 NSCLC cells = test: MTT viability assay, cytotoxic activity; type: cell-based
Protocol: (§1) The viability of U1810 or LLC1 cells in the presence of increasing concentrations of calmangafodipir or mangafodipir is presented as concentration response curves (mean±S.D.). The individual curves were fitted to the sigmoidal variable slope response logistic equation (Graphpad Prism, version 5.02). From this analysis the concentrations causing 50% inhibition (IC50) of the test substances were calculated.

[4] = Manganese urine excretion 0-24 h after intravenous injection; details: rats
Protocol: To obtain basal content of manganese (Mn) and zinc (Zn) in urine, two additional (control) rats received 0.25 ml saline and were placed in metabolic cages for urine collection over the same period of time. The urine samples were then stored at −80° C. until Mn analysis. Before analysis, the samples were thawed and extensively shaken to obtain homogenous samples. A five ml aliquot was taken from each sample and 5 ml concentrated nitric acid was added. The samples were then resolved in a microwave oven and thereafter diluted with distilled water to a final volume of 50 ml. The Mn content of each sample was analyzed by ICP-MS (Inductively Coupled Plasma Mass Spectrometry). Identical samples of calmangafodipir and mangafodipir as those injected in the rats (i.e., 0.25 ml) were withdrawn and injected into test tubes. These samples were treated in an identical manner to that of the urine samples and analyzed for their Mn content. Results are presented as total 0-24 h urine Mn content (expressed as μmol/kg±S.E.M.) and as percentage (±S.E.M.) of the injected dose. […] A p-value lower than 0.05 was considered as a statistically significant difference.

CT26 tumors [5] = test: Antitumor activity of oxaliplatin with or without calmangafodipir in CT26-bearing mice; type: in vivo, balb/c mice
Protocol: When the cells reached ˜50% confluency they were harvested by trypsinization. Briefly, cells were washed with phosphate based saline (PBS) (pH 7.3) and exposed to 0.05% Trypsin/0.53 mM EDTA at 37° C. for ˜5 min. The trypsinization was stopped by adding RPMI1640 culture medium. Cells were counted and centrifuged at 200×g for 5 min. Thereafter, they were washed in PBS, centrifuged again and resuspended in PBS at a concentration of 2×10^6/350 μl for injection into mice. Balb/c female mice between 6 and 8 weeks of age were used, as described by Laurent et al., 2005. Briefly, each mouse was injected subcutaneously in the back of the neck with 2×10^6 of CT26 cells at day 0. After 7 days (day 7) when the tumors were detectable, the tumor size was determined with a caliper and mice were grouped (5 in each group) so that the sizes of the tumors were not statistically different by group. Oxaliplatin±calmangafodipir (lot #11AK0105B) was injected and one group of mice received vehicle (0.9% saline+5% glucose) treatment alone. In a first series of experiments, mice were injected i.v. with saline or 50 mg/kg calmangafodipir 30 minutes prior to i.p. administration of 20 mg/kg oxaliplatin (diluted in 5% glucose) or 5% glucose. These mice received in addition saline or 50mg/kg calmangafodipir 24 hours later (day 8). In another series of experiments, mice were injected i.v. with saline or 5 mg/kg calmangafodipir 30 minutes […] (diluted in 5% glucose) or 5% glucose, and saline or 5 mg/kg calmangafodipir 24 hours later (day 8). The mice were killed on day 10 and the tumors were excised and wet weights were determined.

LLC1 NSCLC cells = test: MTT viability assay, cytotoxic activity; type: cell-based, murine; details: 48 h
Protocol: as §1

[6] = Exposure of solids at 25° C./60% RH and 40° C./75% RH (water absorption); type: physicochemical; details: 7 days at 25° C./60% RH and 40° C./75% RH
Protocol: Furthermore, the preparation of a single active pharmaceutical ingredient reduces the cost of manufacture of a treatment dosage. In addition, the need for dosing of a single material reduces the chance for errors in the formulation of the product.
In a 4:1 ratio approximately 200 mg of calfodipir (CaDPDP) and 50 mg of mangafodipir (MnDPDP) were weighed into a 40 mL vial and dissolved in 40 mL of DI water at room temperature to generate a yellow solution. The yellow aqueous solution was spray dried using a Buchi Mini-Spray Dryer B-290 while attached to the Buchi dehumidifier B-296 as an air conditioner allowing the intake of air from the laboratory. Spray drying optimization experiments were performed at elevated inlet temperatures (220° C.) with varying feed rates (20, 30, 40, 50 and 60%). Recovery of product ranged from 180-230 mg.

white blood cells (WBC) = test: Myelosuppressive effects of oxaliplatin in balb/c mice, cytoprotection; details: 12.5 mg/kg oxaliplatin plus 5 mg/kg calmangafodipir iv 30 min before and 24 h after
Protocol: One day before (baseline) as well as 3 and 6 days after oxaliplatin treatment 50 μl EDTA blood samples were taken from the orbital venous plexus with a glass capillary. The blood samples were analyzed using the automated system CELL-DYN® Emerald (Abbott Diagnostics) for the content of white blood cells (WBC), lymphocytes (LYM), neutrophils (NEU) and platelets (PLC). […] A control group received instead of oxaliplatin vehicle (5% glucose) and saline. […] The statistical differences between treatment groups, where appropriate, were tested by an unpaired Student's t-test. A p-value lower than 0.05 was considered as a statistically significant difference.

[7] = Variable humidity XRPD analysis of crystalline forms; type: physicochemical; details: 10 mg scale, change of ambient humidity
Description: X-Ray Powder Diffraction (XRPD) is most widely used in the identification and characterization of crystalline solids, each of which produces a distinctive diffraction pattern. Both the positions (corresponding to lattice spacings) and the relative intensity of the lines are indicative of a particular phase and material, providing a “fingerprint” for comparison.

[8] = Mn content of brain, pancreas and liver after repeated intravenous injections; details: rats, 39 iv doses, 72 μmol/kg manganese each, 3 times a week for 13 weeks
Protocol: After the 13-week administration period, the rats were sacrificed and the brains and pancreas were dissected out and approximately 0.5 g samples were stored frozen until Mn analysis. The Mn content of each sample was analyzed by ICP-MS. Results are expressed as μg/g wet weight±S.E.M. Statistical difference between the mangafodipir group and the calmangafodipir group, with respect to Mn content, was tested by a paired Student's t-test. A p-value lower than 0.05 was considered as a statistically significant difference.

Cc1ncc(COP(=O)([O-])O)c(CN(CCN(CC(=O)O)Cc2c(COP(=O)([O-])O)cnc(C)c2O)CC(=O)O)c1O.Cc1ncc(COP(=O)([O-])O)c(CN(CCN(CC(=O)O)Cc2c(COP(=O)([O-])O)cnc(C)c2O)CC(=O)O)c1O.Cc1ncc(COP(=O)([O-])O)c(CN(CCN(CC(=O)O)Cc2c(COP(=O)([O-])O)cnc(C)c2O)CC(=O)O)c1O.Cc1ncc(COP(=O)([O-])O)c(CN(CCN(CC(=O)O)Cc2c(COP(=O)([O-])O)cnc(C)c2O)CC(=O)O)c1O.Cc1ncc(COP(=O)([O-])O)c(CN(CCN(CC(=O)O)Cc2c(COP(=O)([O-])O)cnc(C)c2O)CC(=O)O)c1O.[Ca+2].[Ca+2].[Ca+2].[Ca+2].[Mn+2] [calmangafodipir]
cytotoxic activity relative to mangafodipir [1]: about 20 times
influence on antitumor effect of oxaliplatin (CT26 tumors [2]; immune competent and immune incompetent mice): did not have any negative influence on the antitumor effect of oxaliplatin
mean tumor weight compared to controls (CT26 tumors [2]; immune competent mice): statistically significantly reduced
mean tumor weight compared to controls (CT26 tumors [2]; immune deficient mice): no such reduction was seen
effect on carboplatin-induced decreases in WBC, NEU and LYM ([3]; calmangafodipir 3 mg/kg with carboplatin 125 mg/kg): abolished these decreases
shape of dose-response of myeloprotection ([3]; calmangafodipir 1, 3, 10 or 30 mg/kg with carboplatin 125 mg/kg): bell shaped appearance
IC50 ratio between mangafodipir and calmangafodipir (potency relative to mangafodipir) (human U1810 NSCLC cells): about 28 times
IC50 (human U1810 NSCLC cells; 48 h, MTT, read-out: IC50 (concentration causing 50% inhibition of viability)): 22.7 µM
Mn recovered in 0-24 h urine ([4]; iv 0.25 ml, 2.59 μmol Mn (mangafodipir) or 2.52 μmol Mn (calmangafodipir) injected): 1.27 ± 0.07 µmol
Mn in 0-24 h urine as percentage of the injected dose ([4]; iv, basal excretion subtracted): 50.5±2.6%
influence on antitumor effect of oxaliplatin (CT26 tumors [5]; 5 mg/kg calmangafodipir iv with 10 mg/kg oxaliplatin): statistically significant better antitumor effect
influence on antitumor effect of oxaliplatin (CT26 tumors [5]; 50 mg/kg calmangafodipir iv with 20 mg/kg oxaliplatin): did not have any negative influence on the antitumor effect of oxaliplatin
potency to kill cells compared with mangafodipir (LLC1 NSCLC cells): significantly more potent than mangafodipir
appearance of solid after exposure [6]: remained a free flowing solid
fall in WBC (white blood cells (WBC)): about 25%
time within which form conversions occur [7]: ≤ 3 h
Mn brain content [8]: 0.74±0.01 μg/g w.w.
Mn content in the pancreas [8]: 3.35 ± 0.19 µmol/kg
